Data from the supplement of paper PMC11208160.

Test: recombinant barcode read abundance after kanamycin selection (control-corrected) (log10(CPM+1)); higher = more efficient recombination; sequences stand for … in AGTGCAGAGAAAATCGGCCAGTTTTCTCTGCCTGCAGTCCGCATGCCGT…AGATTTATGCAGCGGACTGCCTTTCTCCCAAAGTGATAAACCGGACAGTATCATGGACCGGTTTTCCCGGTAATCCGTATTTGCAAGGTTGGTTTCACT; site = the 11-nt target
Summary of the method: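 A vector carrying a T7-inducible recombinase and the last 73 bp of the bridge RNA received, by Gibson cloning, oligos encoding a promoter, target, barcode and the first 104 bridge RNA bases under J23119. The pooled constructs entered E. coli together with a donor plasmid by electroporation. Selection used chloramphenicol/ampicillin/kanamycin with 0.1 mM IPTG, with chloramphenicol/ampicillin LB agar as the control, each in two replicates. Recombination efficiency is the averaged, control-corrected counts-per-million of barcodes at recombinant junctions, reported as log10(CPM+1).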
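Note: IS621 recombinase and bridge RNA in Escherichia coli cells.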

Sequence	recombinant barcode read abundance (log10)
TAAGGGACTTGGGTTCTAACCTGTTGCTA (site CGCCCTTCTAG)	0.239
TAAGGGACTTGGGTTCTAACCTGTTGCTA (site TAAGGGACTTA)	2.26
TAAGGTACTTGGGTTCTAACCTGTTGCTT (site TAAAGTACTAA)	0.0963
TAAGGTACTTGGGTTCTAACCTGTTGCTT (site TAACGTACTAA)	0.151
TAAGGTACTTGGGTTCTAACCTGTTGCTT (site TAAGGTACTAA)	1.26
TAAGGTACTTGGGTTCTAACCTGTTGCTT (site TAATGTACTAA)	0.0967
TAAGGTCCTTGGGTTCTAACCTGTTGCAG (site TAAGGTCCTCT)	2.47
TAAGGTCCTTGGGTTCTAACCTGTTGCAG (site TAGGGTCCTCC)	0.158
TAAGTCACTTGGGTTCTAACCTGTTGCCT (site GAAGTCACTAG)	0.0452
TAAGTCACTTGGGTTCTAACCTGTTGCCT (site TAAGTCACTAG)	1.9
TAAGTGTCTTGGGTTCTAACCTGTTGCCT (site TAAGTGTCTAG)	2.56
TAAGTGTCTTGGGTTCTAACCTGTTGCCT (site TACGTGTCTAG)	0.171
TAAGTGTCTTGGGTTCTAACCTGTTGCCT (site TAGGTGTCTAG)	0.314
TAAGTGTCTTGGGTTCTAACCTGTTGCCT (site TATGTGTCTAG)	1.03
TAATGAACTTGGGTTCTAACCTGTTGCCT (site TAATGAACTAG)	0.32
TAATGAACTTGGGTTCTAACCTGTTGCCT (site TAATGTACTAG)	0.216
TAATGACCTTGGGTTCTAACCTGTTGCAT (site TAATGACCTAA)	0.0652
TAATGACCTTGGGTTCTAACCTGTTGCAT (site TAATGACCTAT)	1.67
TAATGGTCTTGGGTTCTAACCTGTTGCAT (site TAATGGTCTAT)	1.61
TAATGGTCTTGGGTTCTAACCTGTTGCAT (site TAATGTTCTAT)	0.065
TAATTGCCTTGGGTTCTAACCTGTTGCCT (site TAATTGCCTAG)	0.645
TAATTGCCTTGGGTTCTAACCTGTTGCCT (site TACTTGCCTAG)	0.324

Sequence	recombinant barcode read abundance (log10)
TAATTGCCTTGGGTTCTAACCTGTTGCCT (site TAGTTGCCTAG)	0.474
TAATTGCCTTGGGTTCTAACCTGTTGCCT (site TATTTGCCTAG)	0.0725
TACAAGCCTTGGGTTCTAACCTGTTGCCT (site TACAAGCCTAG)	0.338
TACAAGCCTTGGGTTCTAACCTGTTGCCT (site TAGAAGCCTCG)	0.0913
TACAAGGCTTGGGTTCTAACCTGTTGCGG (site TACAAGGCTCC)	2.68
TACAAGGCTTGGGTTCTAACCTGTTGCGG (site TACAAGTCTCC)	0.292
TACACAGCTTGGGTTCTAACCTGTTGCCT (site TAAACAGCTAG)	0.176
TACACAGCTTGGGTTCTAACCTGTTGCCT (site TACACAGCTAG)	0.909
TACACAGCTTGGGTTCTAACCTGTTGCCT (site TAGACAGCTAG)	0.249
TACACAGCTTGGGTTCTAACCTGTTGCCT (site TATACAGCTAG)	0.149
TACACTACTTGGGTTCTAACCTGTTGCCG (site TACACGACTCC)	0.0364
TACACTACTTGGGTTCTAACCTGTTGCCG (site TACACTACTCG)	0.177
TACATCCCTTGGGTTCTAACCTGTTGCCA (site TACATCCCTAG)	0.5
TACATCCCTTGGGTTCTAACCTGTTGCCA (site TACATCCCTCG)	0.0234
TACATCCCTTGGGTTCTAACCTGTTGCCA (site TACATCCCTGG)	0.0594
TACATCCCTTGGGTTCTAACCTGTTGCCA (site TACATCCCTTG)	0.358
TACATTCCTTGGGTTCTAACCTGTTGCCT (site AACATTCCTAG)	0.0286
TACATTCCTTGGGTTCTAACCTGTTGCCT (site CACATTCCTAG)	0.0666
TACATTCCTTGGGTTCTAACCTGTTGCCT (site GACATTCCTAG)	0.179
TACATTCCTTGGGTTCTAACCTGTTGCCT (site TACATTCCTAG)	0.156
TACCCTACTTGGGTTCTAACCTGTTGCCT (site AACCCTACTAG)	0.0271
TACCCTACTTGGGTTCTAACCTGTTGCCT (site CACCCTACTAG)	0.0188

Sequence	recombinant barcode read abundance (log10)
TACCCTACTTGGGTTCTAACCTGTTGCCT (site GACCCTACTAG)	0.0371
TACCCTACTTGGGTTCTAACCTGTTGCCT (site TACCCTACTAG)	0.628
TACCGGCCTTGGGTTCTAACCTGTTGCCT (site TAACGGCCTAG)	0.288
TACCGGCCTTGGGTTCTAACCTGTTGCCT (site TACCGGCCTAG)	0.141
TACCGGCCTTGGGTTCTAACCTGTTGCCT (site TAGCGGCCTAG)	0.176
TACCGGCCTTGGGTTCTAACCTGTTGCCT (site TATCGGCCTAG)	0.166
TACCTAGCTTGGGTTCTAACCTGTTGCGT (site TACCTAGCTAC)	1.3
TACCTAGCTTGGGTTCTAACCTGTTGCGT (site TACCTATCTAC)	0.433
TACCTATCTTGGGTTCTAACCTGTTGCCT (site TACCTATCTAG)	1.11
TACCTATCTTGGGTTCTAACCTGTTGCCT (site TCCCTATCTAG)	0.00692
TACCTATCTTGGGTTCTAACCTGTTGCCT (site TGCCTATCTAG)	0.0136
TACCTATCTTGGGTTCTAACCTGTTGCCT (site TTCCTATCTAG)	0.429
TACCTGACTTGGGTTCTAACCTGTTGCCT (site TACCAGACTAG)	0.0067
TACCTGACTTGGGTTCTAACCTGTTGCCT (site TACCCGACTAG)	0.355
TACCTGACTTGGGTTCTAACCTGTTGCCT (site TACCGGACTAG)	0.106
TACCTGACTTGGGTTCTAACCTGTTGCCT (site TACCTGACTAG)	0.688
TACGCCTCTTGGGTTCTAACCTGTTGCCT (site AACGCCTCTAG)	0.0117
TACGCCTCTTGGGTTCTAACCTGTTGCCT (site CACGCCTCTAG)	0.164
TACGCCTCTTGGGTTCTAACCTGTTGCCT (site GACGCCTCTAG)	0.249
TACGCCTCTTGGGTTCTAACCTGTTGCCT (site TACGCCTCTAG)	1.29
TACGTGTCTTGGGTTCTAACCTGTTGCCT (site TAAGTGTCTAG)	0.408
TACGTGTCTTGGGTTCTAACCTGTTGCCT (site TACGTGTCTAG)	2.4

Sequence	recombinant barcode read abundance (log10)
TACGTGTCTTGGGTTCTAACCTGTTGCCT (site TAGGTGTCTAG)	0.0617
TACGTGTCTTGGGTTCTAACCTGTTGCCT (site TATGTGTCTAG)	0.103
TACTAAGCTTGGGTTCTAACCTGTTGCCT (site TACTAAGCTAA)	0
TACTAAGCTTGGGTTCTAACCTGTTGCCT (site TACTAAGCTAC)	0.098
TACTAAGCTTGGGTTCTAACCTGTTGCCT (site TACTAAGCTAG)	0.495
TACTAAGCTTGGGTTCTAACCTGTTGCCT (site TACTAAGCTAT)	0.171
TACTATGCTTGGGTTCTAACCTGTTGCGA (site TACTATGCTTC)	0.41
TACTATGCTTGGGTTCTAACCTGTTGCGA (site TCCTATTCTTC)	0
TACTATTCTTGGGTTCTAACCTGTTGCCT (site TACTATACTAG)	0.0693
TACTATTCTTGGGTTCTAACCTGTTGCCT (site TACTATCCTAG)	0.0345
TACTATTCTTGGGTTCTAACCTGTTGCCT (site TACTATGCTAG)	0.175
TACTATTCTTGGGTTCTAACCTGTTGCCT (site TACTATTCTAG)	0.263
TACTGCTCTTGGGTTCTAACCTGTTGCTT (site TACAGCTCTAA)	0.0305
TACTGCTCTTGGGTTCTAACCTGTTGCTT (site TACCGCTCTAA)	0.213
TACTGCTCTTGGGTTCTAACCTGTTGCTT (site TACGGCTCTAA)	0.0516
TACTGCTCTTGGGTTCTAACCTGTTGCTT (site TACTGCTCTAA)	0.296
TACTTAACTTGGGTTCTAACCTGTTGCCT (site TACTAAACTAG)	0.119
TACTTAACTTGGGTTCTAACCTGTTGCCT (site TACTCAACTAG)	0.00663
TACTTAACTTGGGTTCTAACCTGTTGCCT (site TACTGAACTAG)	0.0656
TACTTAACTTGGGTTCTAACCTGTTGCCT (site TACTTAACTAG)	0.134
